Experiment [1] deals with HPK4 (Homo sapiens, UniProt Q8NE63). As to the kind of experiment: HotSpot Kinase Assay, HPK4.
Method: (§1) Specifically, for each reaction, kinase and substrate were mixed in a pH 7.5 buffer containing 20 mM HEPES, 10 mM MgCl2, 1 mM EGTA [Ethylene glycol-bis(2-aminoethylether)-N,N,N′,N′-tetraacetic acid], 0.02% Brij35, 0.02 mg/mL BSA (Bovine Serum Albumin), 0.1 mM Na3VO4, 2 mM DTT, and 1% DMSO. Compounds were then added to each reaction mixture. After a 20-min incubation, ATP (Sigma-Aldrich) and [γ-^33P] ATP (PerkinElmer) were added at a final total concentration of 100 μM. Reactions were carried out at room temperature for 2 hours and spotted onto P81 ion exchange cellulose chromatography paper (Whatman). […] The percent remaining kinase activity relative to a vehicle-containing (DMSO) kinase reaction was calculated for each kinase/inhibitor pair. […] IC50 values were calculated using Prism 5 (GraphPad).
Experiment [2] addresses EPHA3 (Homo sapiens, UniProt P29320). In words: HotSpot Kinase Assay, EPHA3.
Method: as §1
For experiment [3], the target named is BLK (Homo sapiens, UniProt P51451). As to the kind of experiment: HotSpot Kinase Assay, BLK.
Method: as §1
Experiment [4] has as its target c-Kit (Homo sapiens, UniProt P10721). In words: HotSpot Kinase Assay, c-Kit.
Experiment [5] has as its target KDR/VEGFR2 (Homo sapiens, UniProt P35968). As to the kind of experiment: HotSpot Kinase Assay, KDR/VEGFR2.
In experiment [6] the target is FMS (Homo sapiens, UniProt P07333). In words: HotSpot Kinase Assay, FMS.
Chain of FMS (P07333 20-972): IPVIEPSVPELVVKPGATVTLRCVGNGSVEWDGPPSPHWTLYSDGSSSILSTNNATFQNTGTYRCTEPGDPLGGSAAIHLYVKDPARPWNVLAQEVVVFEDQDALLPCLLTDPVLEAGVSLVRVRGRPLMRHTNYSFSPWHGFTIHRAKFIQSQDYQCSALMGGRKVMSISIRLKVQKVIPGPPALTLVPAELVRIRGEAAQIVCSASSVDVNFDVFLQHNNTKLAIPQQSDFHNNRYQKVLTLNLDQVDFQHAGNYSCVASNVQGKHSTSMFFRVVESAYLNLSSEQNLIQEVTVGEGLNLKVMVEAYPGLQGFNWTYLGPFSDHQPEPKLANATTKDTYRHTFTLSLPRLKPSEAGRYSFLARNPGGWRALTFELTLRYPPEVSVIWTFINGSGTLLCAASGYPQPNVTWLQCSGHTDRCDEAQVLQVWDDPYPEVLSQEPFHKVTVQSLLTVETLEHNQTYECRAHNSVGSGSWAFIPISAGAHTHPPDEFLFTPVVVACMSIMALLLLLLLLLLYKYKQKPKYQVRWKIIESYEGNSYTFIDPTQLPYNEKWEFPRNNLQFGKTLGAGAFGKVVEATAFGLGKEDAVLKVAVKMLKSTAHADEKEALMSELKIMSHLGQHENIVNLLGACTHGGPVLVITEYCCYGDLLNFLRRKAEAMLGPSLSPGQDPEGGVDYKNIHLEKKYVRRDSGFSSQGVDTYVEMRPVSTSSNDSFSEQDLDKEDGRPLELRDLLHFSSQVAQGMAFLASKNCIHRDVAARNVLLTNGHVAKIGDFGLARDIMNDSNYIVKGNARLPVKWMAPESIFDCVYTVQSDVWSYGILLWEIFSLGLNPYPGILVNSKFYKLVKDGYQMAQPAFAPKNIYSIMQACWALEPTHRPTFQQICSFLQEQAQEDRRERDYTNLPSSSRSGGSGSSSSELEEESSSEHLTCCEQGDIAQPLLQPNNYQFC
Method: as §1
For experiment [7], the target named is MEK5 (Homo sapiens, UniProt Q13163). In words: HotSpot Kinase Assay, MEK5.
Method: as §1
Experiment [8] addresses PDGFβ (Homo sapiens, UniProt P09619). In words: HotSpot Kinase Assay, PDGFβ.
Method: as §1
Experiment [9] has as its target EPHA4 (Homo sapiens, UniProt P54764). In words: HotSpot Kinase Assay, EPHA4.
Method: as §1
Experiment [10] concerns the target LCK (Homo sapiens, UniProt P06239). In words: HotSpot Kinase Assay, LCK.
Method: as §1
Experiment [11] addresses MNK2 (Homo sapiens, UniProt Q9HBH9). In words: HotSpot Kinase Assay, MNK2.
Method: as §1
The target of experiment [12] is FRK/PTK5 (Homo sapiens, UniProt P42685). As to the kind of experiment: HotSpot Kinase Assay, FRK/PTK5.
Method: as §1
The target in experiment [13] is SLK/STK2 (Homo sapiens, UniProt Q9H2G2). In words: HotSpot Kinase Assay, SLK/STK2.
Method: as §1
The target of experiment [14] is DDR2 (Homo sapiens, UniProt Q16832). In words: HotSpot Kinase Assay, DDR2.
Method: as §1
Experiment [15] has as its target RON/MST1R (Homo sapiens, UniProt Q04912). As to the kind of experiment: HotSpot Kinase Assay, RON/MST1R.
Method: as §1
For experiment [16], the target named is T1, TYRO3/SKY (Homo sapiens, UniProt Q06418).
T1 sequence (Q06418 41-890): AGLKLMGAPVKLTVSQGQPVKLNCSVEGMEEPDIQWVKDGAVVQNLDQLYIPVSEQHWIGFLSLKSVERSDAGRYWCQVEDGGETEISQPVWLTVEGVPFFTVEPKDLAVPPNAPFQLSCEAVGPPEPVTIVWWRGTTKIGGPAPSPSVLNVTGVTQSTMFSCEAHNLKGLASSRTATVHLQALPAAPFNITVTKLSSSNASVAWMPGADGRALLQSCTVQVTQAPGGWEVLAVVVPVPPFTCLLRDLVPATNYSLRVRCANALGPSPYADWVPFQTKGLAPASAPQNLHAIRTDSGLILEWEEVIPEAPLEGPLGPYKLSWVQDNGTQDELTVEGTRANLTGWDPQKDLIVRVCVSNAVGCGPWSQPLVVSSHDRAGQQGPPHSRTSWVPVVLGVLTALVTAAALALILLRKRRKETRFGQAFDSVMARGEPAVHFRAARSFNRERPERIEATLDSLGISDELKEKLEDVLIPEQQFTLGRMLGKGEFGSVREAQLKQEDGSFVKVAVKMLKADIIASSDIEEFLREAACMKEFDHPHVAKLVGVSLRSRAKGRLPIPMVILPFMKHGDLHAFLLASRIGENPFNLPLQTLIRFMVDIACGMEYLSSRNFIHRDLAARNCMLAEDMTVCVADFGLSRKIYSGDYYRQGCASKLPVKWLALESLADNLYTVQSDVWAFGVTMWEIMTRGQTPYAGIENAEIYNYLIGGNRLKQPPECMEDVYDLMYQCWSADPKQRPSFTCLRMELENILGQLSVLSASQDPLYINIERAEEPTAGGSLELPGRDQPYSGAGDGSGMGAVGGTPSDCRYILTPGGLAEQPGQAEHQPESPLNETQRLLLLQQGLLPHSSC
In words: HotSpot Kinase Assay, TYRO3/SKY.
Method: as §1

In experiment [17] the target is EPHB2 (Homo sapiens, UniProt P29323). As to the kind of experiment: HotSpot Kinase Assay, EPHB2.
Method: as §1
Experiment [18] addresses EPHB4 (Homo sapiens, UniProt P54760). In words: HotSpot Kinase Assay, EPHB4.
Method: as §1

The values that follow come from patent US11358949B2, “Carbamate and urea compounds as multikinase inhibitors” (ANGEX PHARMACEUTICAL, INC., priority 2017, dated 2022).

In general, pIC50 refers to −log10 of the IC50, conventionally taken in molar units.

pIC50: −log10 of the molar value.

Chain of EPHA3 (P29320 21-983): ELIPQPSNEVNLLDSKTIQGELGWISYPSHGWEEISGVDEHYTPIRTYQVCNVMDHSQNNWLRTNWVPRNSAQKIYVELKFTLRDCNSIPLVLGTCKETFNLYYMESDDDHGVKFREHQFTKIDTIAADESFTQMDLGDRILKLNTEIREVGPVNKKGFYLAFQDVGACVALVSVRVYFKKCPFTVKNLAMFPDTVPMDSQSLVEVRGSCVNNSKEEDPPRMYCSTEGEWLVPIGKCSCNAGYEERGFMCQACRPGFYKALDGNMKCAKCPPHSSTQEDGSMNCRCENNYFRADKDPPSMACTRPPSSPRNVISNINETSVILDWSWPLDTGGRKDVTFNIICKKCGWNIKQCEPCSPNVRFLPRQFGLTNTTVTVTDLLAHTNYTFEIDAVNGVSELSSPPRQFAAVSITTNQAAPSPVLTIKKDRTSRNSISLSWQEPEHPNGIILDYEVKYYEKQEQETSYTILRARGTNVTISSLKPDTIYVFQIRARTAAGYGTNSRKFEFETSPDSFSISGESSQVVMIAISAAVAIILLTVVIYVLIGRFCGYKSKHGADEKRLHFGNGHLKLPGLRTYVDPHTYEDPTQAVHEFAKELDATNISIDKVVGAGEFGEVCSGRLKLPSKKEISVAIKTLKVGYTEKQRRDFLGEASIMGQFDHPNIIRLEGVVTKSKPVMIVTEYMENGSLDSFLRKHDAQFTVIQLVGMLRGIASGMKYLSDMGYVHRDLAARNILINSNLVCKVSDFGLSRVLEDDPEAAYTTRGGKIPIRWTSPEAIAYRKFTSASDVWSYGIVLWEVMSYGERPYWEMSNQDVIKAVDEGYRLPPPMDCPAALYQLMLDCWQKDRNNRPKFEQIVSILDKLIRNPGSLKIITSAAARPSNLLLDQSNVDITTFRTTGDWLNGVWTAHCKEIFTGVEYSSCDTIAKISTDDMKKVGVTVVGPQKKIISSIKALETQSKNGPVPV
Chain of EPHB4 (P54760 16-987): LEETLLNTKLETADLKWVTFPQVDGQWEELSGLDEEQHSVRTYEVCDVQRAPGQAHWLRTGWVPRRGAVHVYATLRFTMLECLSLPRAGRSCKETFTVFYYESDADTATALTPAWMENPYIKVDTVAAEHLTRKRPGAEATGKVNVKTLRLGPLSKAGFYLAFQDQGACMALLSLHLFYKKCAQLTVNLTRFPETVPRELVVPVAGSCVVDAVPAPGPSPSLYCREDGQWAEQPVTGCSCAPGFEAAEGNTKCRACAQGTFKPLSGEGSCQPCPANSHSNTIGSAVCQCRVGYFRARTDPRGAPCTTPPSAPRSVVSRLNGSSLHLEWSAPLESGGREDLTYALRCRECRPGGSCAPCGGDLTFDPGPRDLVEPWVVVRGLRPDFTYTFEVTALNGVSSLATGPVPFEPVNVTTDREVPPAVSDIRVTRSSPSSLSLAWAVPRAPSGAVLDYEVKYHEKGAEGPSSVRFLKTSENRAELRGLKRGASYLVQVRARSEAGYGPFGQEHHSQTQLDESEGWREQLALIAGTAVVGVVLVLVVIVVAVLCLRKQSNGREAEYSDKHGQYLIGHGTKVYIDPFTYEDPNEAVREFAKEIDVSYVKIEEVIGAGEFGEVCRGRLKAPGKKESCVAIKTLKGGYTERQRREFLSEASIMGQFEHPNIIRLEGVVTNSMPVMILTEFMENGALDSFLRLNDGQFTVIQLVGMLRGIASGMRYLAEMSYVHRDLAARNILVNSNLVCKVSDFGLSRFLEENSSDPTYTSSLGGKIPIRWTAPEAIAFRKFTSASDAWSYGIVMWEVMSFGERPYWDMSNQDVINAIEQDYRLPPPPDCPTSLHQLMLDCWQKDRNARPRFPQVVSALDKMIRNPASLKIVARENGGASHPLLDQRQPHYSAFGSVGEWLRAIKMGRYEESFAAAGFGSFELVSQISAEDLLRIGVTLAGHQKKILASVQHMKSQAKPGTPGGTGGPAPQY
Chain of KDR/VEGFR2 (P35968 20-1356): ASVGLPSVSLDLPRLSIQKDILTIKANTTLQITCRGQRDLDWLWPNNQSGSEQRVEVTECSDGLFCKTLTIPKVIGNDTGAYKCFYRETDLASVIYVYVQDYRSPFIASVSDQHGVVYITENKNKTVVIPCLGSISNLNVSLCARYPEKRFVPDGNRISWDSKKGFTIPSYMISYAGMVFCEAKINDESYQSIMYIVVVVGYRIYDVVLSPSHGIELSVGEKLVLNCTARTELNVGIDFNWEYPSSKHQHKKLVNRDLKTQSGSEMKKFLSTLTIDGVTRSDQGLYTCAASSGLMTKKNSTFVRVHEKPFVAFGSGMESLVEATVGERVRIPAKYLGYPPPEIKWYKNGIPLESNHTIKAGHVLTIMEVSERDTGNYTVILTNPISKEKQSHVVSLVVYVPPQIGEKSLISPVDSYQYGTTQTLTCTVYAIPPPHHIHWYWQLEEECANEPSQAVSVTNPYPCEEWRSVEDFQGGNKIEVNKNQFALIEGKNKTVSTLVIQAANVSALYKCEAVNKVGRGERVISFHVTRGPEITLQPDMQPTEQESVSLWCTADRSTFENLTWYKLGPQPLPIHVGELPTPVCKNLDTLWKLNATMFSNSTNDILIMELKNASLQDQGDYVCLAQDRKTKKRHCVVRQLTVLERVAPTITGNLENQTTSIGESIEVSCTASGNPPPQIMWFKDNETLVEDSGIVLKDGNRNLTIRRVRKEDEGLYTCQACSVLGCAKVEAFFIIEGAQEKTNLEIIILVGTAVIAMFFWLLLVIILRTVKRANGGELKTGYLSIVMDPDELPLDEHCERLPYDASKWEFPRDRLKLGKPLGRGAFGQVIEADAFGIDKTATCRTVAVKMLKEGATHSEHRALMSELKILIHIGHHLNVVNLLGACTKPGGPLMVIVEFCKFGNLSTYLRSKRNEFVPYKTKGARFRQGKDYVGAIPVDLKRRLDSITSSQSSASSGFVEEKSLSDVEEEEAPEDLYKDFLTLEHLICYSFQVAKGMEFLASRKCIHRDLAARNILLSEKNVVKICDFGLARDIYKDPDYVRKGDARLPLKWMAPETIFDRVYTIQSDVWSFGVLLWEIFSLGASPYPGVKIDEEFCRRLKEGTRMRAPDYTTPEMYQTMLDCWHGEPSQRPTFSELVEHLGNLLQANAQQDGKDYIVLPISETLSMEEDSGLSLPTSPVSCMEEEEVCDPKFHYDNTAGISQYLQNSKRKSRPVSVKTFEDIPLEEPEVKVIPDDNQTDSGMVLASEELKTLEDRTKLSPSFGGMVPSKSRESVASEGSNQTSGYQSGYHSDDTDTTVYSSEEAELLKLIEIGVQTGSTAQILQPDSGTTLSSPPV
Chain of LCK (P06239 whole entry): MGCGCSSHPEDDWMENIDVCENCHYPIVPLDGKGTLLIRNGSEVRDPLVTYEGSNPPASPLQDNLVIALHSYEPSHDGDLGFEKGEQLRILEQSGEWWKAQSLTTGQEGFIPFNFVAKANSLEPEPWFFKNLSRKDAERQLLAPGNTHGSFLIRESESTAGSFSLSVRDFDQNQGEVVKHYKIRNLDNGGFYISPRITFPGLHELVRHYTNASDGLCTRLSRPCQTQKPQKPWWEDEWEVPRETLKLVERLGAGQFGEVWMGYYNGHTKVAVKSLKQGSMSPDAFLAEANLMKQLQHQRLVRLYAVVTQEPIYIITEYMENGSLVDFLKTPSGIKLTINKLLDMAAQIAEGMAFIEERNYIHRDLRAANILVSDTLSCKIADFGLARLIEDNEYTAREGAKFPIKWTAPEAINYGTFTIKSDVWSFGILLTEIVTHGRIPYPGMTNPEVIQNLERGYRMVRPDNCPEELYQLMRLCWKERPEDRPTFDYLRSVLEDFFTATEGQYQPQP

Turning to `COc1cc2c(Oc3ccc(NC(=O)C4(C(=O)Nc5ccc(F)cc5)CC4)cc3)ccnc2cc1OC(=O)N1CCN(C)CC1` [Compound 1-10], the pIC50 in [1] is over 7.00; in experiment [2], 6.00 to 7.00; in experiment [3], under 6.00; in experiment [4] it was over 7.00; in [5], 6.00 to 7.00; in experiment [6], over 7.00. Besides, the pIC50 in experiment [7] was under 6.00; in experiment [8], 6.00 to 7.00; in experiment [9] it was 6.00 to 7.00; in [10] it was 6.00 to 7.00; in experiment [11], 6.00 to 7.00; in experiment [12] it was under 6.00. In addition, the negative logarithm of the IC50 (pIC50) in experiment [13] is under 6.00; in [14], over 7.00; in [15] it was under 6.00; in [16], 6.00 to 7.00; in experiment [17], 6.00 to 7.00; in experiment [18] it was 6.00 to 7.00.
